Experimental data from patent publication US20180021485A1, “METHOD FOR MANUFACTURING DRUG-CONTAINING BIODEGRADABLE FIBER MATERIAL BY ELECTROSPINNING” (ORTHOREBIRTH CO., LTD., priority 2015, published 2018).

What was measured:
[1] = LD50 of carboplatin intraperitoneally administered to mice; assay type: in vivo; details: mouse having a body weight of 30 g
[2] = Direct intraperitoneal administration of carboplatin to mice; assay type: in vivo, mouse; details: same amount of carboplatin as contained in the cotton-like carrier
Experimental: On the other hand, the mice to which PBS was administered lived three weeks or more after administration, and were therefore euthanized in the fourth week after administration.

[3] = intraperitoneally administered to mice; cited from earlier work

N.N.O=C([O-])C1(C(=O)[O-])CCC1.[Pt+2] [carboplatin, cis-Diamine(1,1-cyclobutanedicarboxylato)platinum (II)]
LD50 per mouse [1]: 4.5 mg | survival after direct intraperitoneal administration ([2]; healthy mice): all the mice died within several days | findings at dissection after direct intraperitoneal administration [2]: The intestines were necrosed and became dysfunctional | LD50 (50% lethal dose) [3]: 150 mg/kg
